Key:
[1] = tested on: L. infantum promastigotes; experiment: Activity against Leishmania infantum promastigotes (resazurin assay); type: cell-based, Leishmania infantum (MHOM/MA/67/ITMAP-263); details: for IC50: Leishmania infantum, promastigotes, 72 h, 95% CI in brackets; for SI (promastigotes) CC50/Li IC50: THP-1 CC50 / L. infantum promastigote IC50
Description: Promastigotes from the L. infantum strain (MHOM/MA/67/ITMAP-263) were cultivated in 5 ml of Schneider's insect medium, which was supplemented with 10% heat-inactivated fetal bovine serum (FBS), 200 U ml^−1 of penicillin/streptomycin, 6 μg ml^−1 of phenol red, and 5 mM of HEPES. The cultures were maintained in an incubator at 27 °C and diluted to a concentration of 2 × 10^5 cells per ml every 5 days. For the assays the parasites used were equivalent to late/log with two or three days of culture.
The efficacy of the compounds against L. infantum promastigotes was evaluated using a resazurin-based assay. Parasites were added to 100 μl of serial dilutions of the compounds in supplemented complete medium at a cell density of 5 × 10^5 ml^−1. As a quality control, a dose–response curve with the antileishmanial drug miltefosine was included in all assays. The final volume of each assay was 200 μl per well, and each condition was tested in duplicate. After a 72-hour incubation under specific conditions for each parasite, 20 μl of a 0.5 mM resazurin solution was added, and the plates were incubated for an additional 4 hours under the same conditions. Fluorescence was measured at 544 nm for excitation and 590 nm for emission using a Synergy 2 Multi-Mode Reader (Biotek, Winooski, VT, USA). Results were expressed as the percentage of parasite growth inhibition compared to controls (untreated parasites) and represent the average of at least three independent experiments. The effect was evaluated by determining the IC50 value (the concentration required to inhibit 50% growth), calculated using non-linear regression curves via GraphPad Prism version 8.1.1 for Windows (GraphPad Software, San Diego, CA, USA).

[2] = Cytotoxicity on THP-1-derived macrophages (MTT assay); type: cell-based; details: human, THP-1-derived macrophages (PMA-differentiated), value or interval
Description: The THP-1 cell line, a human leukemia line (ATCC® TIB-202™), was cultured in RPMI-1640 medium supplemented with 10% heat-inactivated fetal bovine serum (FBS), 2 mM. L-Glutamine, 100 IU mL^−1 penicillin/streptomycin, and 20 mM HEPES. The cells were maintained in a humidified incubator at 37 °C with 5% CO2. Subculturing was performed every three days, using 20 mL of media at a concentration of 2 × 10^5 cells per mL in a T75 flask. All cell culture reagents were purchased from Lonza Bioscience (Morrisville, NC).
The cytotoxicity of the compounds on THP-1-derived macrophages was evaluated using the colorimetric MTT assay (3-(4,5-dimethylthiazol-2-yl)-2,5-diphenyltetrazolium bromide), as described in Magoulas et al. (2021).[28] THP-1 cells were suspended in complete RPMI medium at a density of 1 × 10^6 cells per mL, and 100 μL of this suspension was seeded into each well of a 96-well plate. The cells were differentiated into macrophages by adding 40 ng mL^−1 of phorbol-myristate 13-acetate (PMA, Sigma, Saint Louis, MI, USA) for 24 hours, followed by replacement with fresh medium for an additional 24 hours. Subsequently, the cells were incubated with 100 μL of various compounds, diluted in complete RPMI medium, at concentrations ranging from 100 to 12.5 μM. Each condition was tested in triplicate. After 72 hours of incubation at 37 °C with 5% CO2, the medium was removed, and 200 μL of a 0.5 mg mL^−1 MTT solution, diluted in RPMI, was added to each well. The plates were incubated for an additional 4 hours. Following this incubation, 160 μL of the medium was removed and replaced with 160 μL of 2-propanol. Absorbance was measured at 570 nm using a Synergy 2 Multi-Mode Reader (Biotek, Winooski, VT, USA). Cytotoxicity was determined by presenting the CC50 (the concentration of the drug that reduces cell viability by 50%) interval or by calculating the CC50 value through non-linear regression analysis using GraphPad Prism version 8.1.1 for Windows (GraphPad Software, San Diego, CA, USA). The results represent the average of at least three independent experiments.

[3] = tested on: bloodstream-form Trypanosoma brucei; experiment: Activity against bloodstream-form Trypanosoma brucei (Alamar Blue growth inhibition); type: cell-based, Trypanosoma brucei (strain 427); details: for IC50 / IC90: Trypanosoma brucei, bloodstream form; for IC50: concentration that inhibits growth by 50%, read-out: T. brucei IC50; for IC90: concentration that inhibits growth by 90%, read-out: T. brucei IC90; for S.I. (selectivity index): ratio of IC50 values obtained with L6 cells and T. brucei
Description: (§1) Bloodstream form T. brucei (strain 427) were cultured at 37 °C in modified Iscove's medium. Trypanocidal activity was assessed by growing parasites in microtiter plates in the presence of various drug concentrations. […] The plates were incubated for 48 hours at 37 °C and 20 μL Alamar Blue was then added to each well. After an additional overnight incubation, the fluorescence was determined using a Gemini fluorescent plate reader (Molecular Devices). Inhibition of growth was calculated by comparison with control values and IC50 and IC90 values were determined in triplicate using linear regression analysis.

L6 cells = experiment: Cytotoxic activity against rat skeletal myoblast L6 cells (Alamar Blue); type: cell-based; details: 120 h, cytotoxicity, 5 days
Description: The cytotoxicity against mammalian cells was assessed using microtitre plates. Briefly, L6 cells (a rat skeletal muscle line) were seeded at 1 × 10^4 mL^−1 in 200 μL of RPMI-1640 growth medium (with 10% fetal calf serum) containing 7 different compound concentrations in a range previously established to encompass both the IC50 and IC90 values. The plates were incubated for 5 days at 37 °C and 20 μL Alamar Blue (Biosource Ltd, Wilton, North Yorkshire England.) was then added to each well. After an additional 8 hours incubation, the fluorescence was determined using a Gemini fluorescent plate reader (Molecular Devices). Inhibition of growth was calculated by comparison with control values and IC50 and IC90 values were determined in triplicate using linear regression analysis.

T. cruzi epimastigotes = experiment: Activity against Trypanosoma cruzi epimastigotes (Alamar Blue growth inhibition); type: cell-based, Trypanosoma cruzi (strain CL Brener); details: CL Brener
Description: as §1, with “Trypanocidal” for “Bloodstream form T. brucei (strain 427) were cultured at 37 °C in modified Iscove's medium. Trypanocidal”, “4 days” for “48 hours”, “28” for “37”, “Blue (Biosource UK Ltd)” for “Blue”, “3 days” for “overnight”

[4] = tested on: T. cruzi intracellular amastigotes; experiment: microbe, parasite or virus in culture; type: cell-based, Trypanosoma cruzi CL Brener PpyRE9h:mScarlet; details: Trypanosoma cruzi, 120 h; in HeLa cells, 5 days
Description: Assays were performed in 96-well black (clear bottom) microtitre plates (Corning Inc.). HeLa ^† cells were seeded at 10^4 per well, incubated for 3 days, and then infected with T. cruzi CL Brener PpyRE9h : mScarlet[25] culture form trypomastigotes (1 : 1 multiplicity of infection). After 16 hours, extracellular parasites were removed by washing in growth medium (×3), test compounds were added, and the plates incubated for 5 days. Fluorescence intensities were then determined using a BMG FLUOstar Omega plate reader (ex 545 nm, em 590 nm), and the data analysed using GraphPad Prism 9.0 software. The values were expressed as IC50/90 ± SD and are the mean of triplicate experiments.

| Compound | IC50 [1] [µM] | SI (promastigotes) CC50/Li IC50 [1] | CC50 at 72 h [2] [µM] | IC50 [3] [µM] | IC90 [3] [µM] | S.I. (selectivity index) [3] | IC50 (L6 cells) [µM] | IC50 (T. cruzi epimastigotes) [µM] | IC90 (T. cruzi epimastigotes) [µM] | IC50 [4] [µM] | IC90 [4] [µM] |
| --- | --- | --- | --- | --- | --- | --- | --- | --- | --- | --- | --- |
| O=C(NCc1ccc(C23CC4CC(CC(C4)C2)C3)cc1)c1ccc([N+](=O)[O-])o1 [1a] | 3.46 | SI > 29 | > 100 |  |  |  |  |  |  |  |  |
| O=C(NCCc1ccc(C23CC4CC(CC(C4)C2)C3)cc1)c1ccc([N+](=O)[O-])o1 [1b] | 0.66 |  | 50 to 100 |  |  |  |  |  |  |  |  |
| O=C(Nc1ccc(C2C3CC4CC(C3)CC2C4)cc1)c1ccc([N+](=O)[O-])o1 (stereo not shown) [2a, N-[4-(2-Adamantyl)phenyl]-5-nitrofuran-2-carboxamide] | 0.12 |  | 1.56 to 6.25 | 0.13 ± 0.04 | 0.33 ± 0.02 | 4 | 0.47 ± 0.07 | 0.55 ± 0.05 | 1.2 ± 0.03 |  |  |
| O=C(NCCc1ccc(C2C3CC4CC(C3)CC2C4)cc1)c1ccc([N+](=O)[O-])o1 (stereo not shown) [2c, N-[4-(2-Adamantyl)phenethyl]-5-nitrofuran-2-carboxamide] | 0.05 |  | 3.13 to 12.5 | 0.042 ± 0.008 | 0.073 ± 0.008 | 42 | 1.8 ± 0.2 | 0.28 ± 0.08 | 1.2 ± 0.08 |  |  |
| O=C(Cn1ccnc1[N+](=O)[O-])Nc1ccc(C23CC4CC(CC(C4)C2)C3)cc1 [3a, N-[4-(1-Adamantyl)phenyl]-2-(2-nitro-1H-imidazol-1-yl)acetamide] | 0.7 |  | 25 to 100 |  |  |  |  |  |  |  |  |
| O=C(Cn1ccnc1[N+](=O)[O-])NCc1ccc(C23CC4CC(CC(C4)C2)C3)cc1 [3b, N-[4-(1-Adamantyl)benzyl]-2-(2-nitro-1H-imidazol-1-yl)acetamide] | 13.8 |  | 50 to 100 |  |  |  |  |  |  |  |  |
| O=C(Cn1ccnc1[N+](=O)[O-])NCCc1ccc(C23CC4CC(CC(C4)C2)C3)cc1 [3c, N-[4-(1-Adamantyl)phenethyl]-2-(2-nitro-1H-imidazol-1-yl) acetamide] | 22.1 |  | 50 to 100 |  |  |  |  |  |  |  |  |
| O=C(Cn1ccnc1[N+](=O)[O-])NCc1ccc(C2C3CC4CC(C3)CC2C4)cc1 (stereo not shown) [4b, N-[4-(2-Adamantyl)benzyl]-2-(2-nitro-1H-imidazol-1-yl)acetamide] | > 40 |  | > 100 |  |  |  |  |  |  |  |  |
| O=C(Cn1ccnc1[N+](=O)[O-])NCCc1ccc(C2C3CC4CC(C3)CC2C4)cc1 (stereo not shown) [4c, N-[4-(2-Adamantyl)phenethyl]-2-(2-nitro-1H-imidazol-1-yl)acetamide] | 37.9 | SI > 1 | > 50 |  |  |  |  |  |  |  |  |
| O=C(Cc1ccc(C23CC4CC(CC(C4)C2)C3)cc1)NCCn1ccnc1[N+](=O)[O-] [5a, 2-[4-(1-Adamantyl)phenyl]-N-[2-(2-nitro-1H-imidazol-1-yl)ethyl] acetamide] | 3.48 |  | 25 to 50 |  |  |  |  |  |  |  |  |
| O=C(Cc1ccc(C23CC4CC(CC(C4)C2)C3)cc1)NCCCn1ccnc1[N+](=O)[O-] [5b, 2-[4-(1-Adamantyl)phenyl]-N-[3-(2-nitro-1H-imidazol-1-yl)propyl] acetamide] | 4.81 |  | 50 to 100 |  |  |  |  |  |  |  |  |
| O=C(NCCn1cnc([N+](=O)[O-])n1)c1ccc(C23CC4CC(CC(C4)C2)C3)cc1 [6a, 4-(1-Adamantyl)-N-[2-(3-nitro-1H-1,2,4-triazol-1-yl)ethyl] benzamide] | 0.74 |  | 25 to 50 | 0.23 ± 0.05 | 0.36 ± 0.03 | 120 | 28 ± 7 | 0.54 ± 0.02 | 1.2 ± 0.01 | 4.88 ± 0.51 | 21.4 ± 3.4 |
| O=C(NCCCn1cnc([N+](=O)[O-])n1)c1ccc(C23CC4CC(CC(C4)C2)C3)cc1 [6d, 4-(1-Adamantyl)-N-[3-(3-nitro-1H-1,2,4-triazol-1-yl)propyl] benzamide] | 0.27 |  | 50 to 100 | 0.18 ± 0.05 | 0.31 ± 0.04 | 123 | 22 ± 1 | 0.45 ± 0.01 | 1.1 ± 0.02 | 3.73 ± 0.44 | 8.42 ± 0.44 |
| O=C(CCc1ccc(C23CC4CC(CC(C4)C2)C3)cc1)NCCCn1cnc([N+](=O)[O-])n1 [6f, 3-[4-(1-Adamantyl)phenyl]-N-[3-(3-nitro-1H-1,2,4-triazol-1-yl)propyl]propanamide] | 0.39 |  | 50 to 100 | 0.14 ± 0.02 | 0.28 ± 0.01 | 134 | 19 ± 2 | 0.44 ± 0.02 | 0.91 ± 0.01 | 2.44 ± 0.57 | 8.23 ± 1.78 |
| O=C(Nc1ccc(C23CC4CC(CC(C4)C2)C3)cc1)c1ccc([N+](=O)[O-])o1 [7a, N-[4-(1-Adamantyl)phenyl]-5-nitrofuran-2-carboxamide] | 0.76 |  | 6.25 to 25 | 0.091 ± 0.005 | 0.22 ± 0.01 |  | < 0.03 | > 0.025 | > 0.025 |  |  |
| O=C(Cn1cnc([N+](=O)[O-])n1)Nc1ccc(C23CC4CC(CC(C4)C2)C3)cc1 [7b, N-[4-(1-Adamantyl)phenyl]-2-(3-nitro-1H-1,2,4-triazol-1-yl)acetamide] |  |  |  | 0.2 ± 0.07 | 0.91 ± 0.19 | 35 | 7.1 ± 0.3 |  |  |  |  |
| O=C(Cn1cnc([N+](=O)[O-])n1)Nc1ccccc1C12CC3CC(CC(C3)C1)C2 [7c, N-[2-(1-Adamantyl)phenyl]-2-(3-nitro-1H-1,2,4-triazol-1-yl)acetamide] |  |  |  | > 25 | > 25 |  |  | > 25 | > 25 |  |  |
| CSc1ccc(OCc2ncc([N+](=O)[O-])n2C)cc1 [Fxd, fexinidazole, reference compound] |  |  |  | 2.4 ± 0.2 |  |  |  |  |  |  |  |
